Assay results as given in ChEMBL document CHEMBL1147611, “Anti-AIDS agents. Part 57: Actein, an anti-HIV principle from the rhizome of Cimicifuga racemosa (black cohosh), and the anti-HIV activity of related saponins” (Bioorg Med Chem Lett, 2004).
In brackets after ≈: the same amount, converted by molar mass.

test system: H9; test: Effective concentration required to suppress HIV replication in H9 lymphocytes was determined; assay type: functional, cell-based; settings: Homo sapiens

SMILES | EC50
C[C@@H]1CC[C@@]2(OC1)O[C@H]1C[C@H]3[C@@H]4CC[C@@H]5C[C@@H](O[C@@H]6O[C@@H](CO)[C@@H](O)[C@H](O)[C@@H]6O[C@@H]6O[C@H](C)[C@H](O)[C@@H](O)[C@@H]6O)CC[C@]5(C)[C@H]4CC[C@]3(C)[C@H]1[C@@H]2C | < 0.25 µg/mL
C[C@@H]1CC[C@@]2(OC1)O[C@H]1C[C@H]3[C@@H]4CC[C@@H]5C[C@@H](O[C@@H]6O[C@@H](CO)[C@H](O)[C@H](O)[C@@H]6O[C@@H]6O[C@@H](CO)[C@@H](O)[C@H](O)[C@@H]6O)CC[C@]5(C)[C@H]4CC[C@]3(C)[C@H]1[C@@H]2C | < 0.25 µg/mL
CC(=O)O[C@@H]1C[C@@]23C[C@@]24CC[C@H](OC2OCC(O)C(O)C2O)C(C)(C)[C@@H]4CC[C@H]3[C@]2(C)C[C@@H]3O[C@]4(C[C@@H](C)[C@@H]3[C@@]12C)O[C@H](O)[C@@]1(C)O[C@@H]41 (some centres undefined) | 0.375 µg/mL (≈ 0.554 µM)

test system: H9; test: Effective concentration required to suppress HIV replication in H9 lymphocytes was determined; Moderate activity; assay type: functional, cell-based, Homo sapiens; settings: not given

EC50 | SMILES
Moderate | C=CC(C)(O)CC/C=C(\CO)C(=O)OC[C@@H]1O[C@@H](OC(=O)[C@]23CCC(C)(C)C[C@H]2C2=CC[C@@H]4[C@@]5(C)CC[C@H](O[C@@H]6O[C@@H](CO[C@@H]7OC[C@H](O)[C@H](O)[C@@H]7O[C@@H]7OC[C@@H](O)[C@H](O)[C@@H]7O)[C@@H](O)[C@H](O)[C@@H]6O)C(C)(C)[C@@H]5CC[C@@]4(C)[C@]2(C)C[C@H]3O)C(O[C@@H]2O[C@@H](C)[C@H](O[C@@H]3OC[C@@H](O)[C@H](O[C@@H]4OC[C@@H](O)[C@H](O)C4O)[C@@H]3O)[C@H](O)[C@H]2O)[C@@H](O)[C@@H]1O (some centres undefined)
Moderate | C=CC(C)(O)CC/C=C(\CO)C(=O)O[C@H]1[C@@H](OC[C@@H]2O[C@@H](OC(=O)[C@]34CCC(C)(C)C[C@H]3C3=CC[C@@H]5[C@@]6(C)CC[C@H](O[C@@H]7O[C@@H](CO[C@@H]8OC[C@H](O)[C@H](O)[C@@H]8O[C@@H]8OC[C@@H](O)[C@H](O)[C@@H]8O)[C@@H](O)[C@H](O)[C@@H]7O)C(C)(C)[C@@H]6CC[C@@]5(C)[C@]3(C)C[C@H]4O)C(O[C@@H]3O[C@@H](C)[C@H](O[C@@H]4OC[C@@H](O)[C@H](O[C@@H]5OC[C@@H](O)[C@H](O)C5O)[C@@H]4O)[C@H](O)[C@H]3O)[C@@H](O)[C@@H]2O)O[C@@H](C)[C@H](O)[C@@H]1OC(=O)/C(=C/CCC(C)(O)C=C)CO (some centres undefined)
Moderate | C=CC(C)(O)CC/C=C(\CO)C(=O)OC[C@@H]1O[C@@H](OC(=O)[C@]23CCC(C)(C)C[C@H]2C2=CC[C@@H]4[C@@]5(C)CC[C@H](O[C@@H]6O[C@@H](CO[C@@H]7OC[C@H](O)[C@H](O)[C@@H]7O[C@@H]7OC[C@@H](O)[C@H](O)[C@@H]7O)[C@@H](O)[C@H](O)[C@@H]6O)C(C)(C)[C@@H]5CC[C@@]4(C)[C@]2(C)CC3)C(O[C@@H]2O[C@@H](C)[C@H](O[C@@H]3OC[C@@H](O)[C@H](O[C@@H]4OC[C@@H](O)[C@H](O)C4O)[C@@H]3O)[C@H](O)[C@H]2O)[C@@H](O)[C@@H]1O (some centres undefined)
Moderate | C=CC(C)(O)CC/C=C(\CO)C(=O)O[C@H]1[C@H](O[C@@H]2[C@H](OC(=O)[C@]34CCC(C)(C)C[C@H]3C3=CC[C@@H]5[C@@]6(C)CC[C@H](O[C@H]7O[C@@H](CO[C@@H]8OC[C@H](O)[C@@H](O)[C@@H]8O[C@@H]8OC[C@@H](O)[C@H](O)[C@@H]8O)[C@@H](O)[C@H](O)[C@@H]7O)C(C)(C)[C@@H]6CC[C@@]5(C)[C@]3(C)CC4)O[C@@H](COC(=O)/C(=C/CC[C@](C)(C=C)O[C@@H]3OC[C@@H](O)[C@H](O)[C@@H]3OC(=O)/C(=C/CC[C@@](C)(O)C=C)CO)CO)[C@@H](O)[C@@H]2O)O[C@@H](C)[C@H](O[C@@H]2OC[C@@H](O)[C@H](O[C@@H]3OC[C@@H](O)[C@H](O)[C@@H]3O)[C@@H]2O)[C@@H]1O (some centres undefined)

test system: not listed separately; test: Therapeutic index of compound was determined by the ratio of IC50 to that of EC50; assay type: cell-based; settings: human, H9 cells; read-out: TI

SMILES | selectivity ratio
C[C@@H]1C[C@H]2O[C@@]3(O[C@@H]2C(C)(C)O)[C@H](O)[C@@]2(C)[C@@H]4CC[C@H]5C(C)(C)[C@@H](O[C@@H]6OC[C@@H](O)[C@H](O)[C@H]6O)CC[C@@]56C[C@@]46CC[C@]2(C)[C@@H]13 | 30.2
C[C@@H]1C[C@]2(C[C@@H](C)[C@H]3[C@@H](C[C@@]4(C)C5=C(CC[C@]34C)[C@@]3(C)CC[C@H](O[C@@H]4O[C@@H](O[C@@H]6OC[C@H](O)[C@H](O)[C@@H]6O[C@@H]6O[C@@H](CO)[C@@H](O)[C@H](O)[C@@H]6O[C@@H]6O[C@@H](C)[C@H](O)[C@H](O)[C@H]6O)[C@@H](O)[C@H](O)[C@@H]4O)[C@@](C)(CO)[C@@H]3CC5)O2)OC1=O | 30.2
CC(=O)OC1COC(O[C@H]2CC[C@]34C[C@]35CC[C@]3(C)[C@@H]([C@H](C)C[C@@H](OC(C)=O)[C@@H]6OC6(C)C)C(=O)[C@H](OC(C)=O)[C@@]3(C)[C@@H]5CC[C@H]4C2(C)C)C(OC(C)=O)C1OC(C)=O (some centres undefined) | 30.2
C[C@H]1[C@H]2[C@H](C[C@@]3(C)[C@@H]4CC[C@H]5C(C)(C)[C@@H](OC6OCC(O)C(O)C6O)CC[C@@]56C[C@@]46CC[C@]23C)O[C@@]2(O)[C@@H]1OC(C)(C)[C@H]2O (some centres undefined) | 30.2
C[C@H]1[C@H]2[C@H](C[C@@]3(C)C4=CC[C@H]5C(C)(C)[C@@H](OC6OCC(O)C(O)C6O)CC[C@@]56C[C@@]46CC[C@]23C)O[C@@]2(O)[C@@H]1OC(C)(C)[C@H]2O (some centres undefined) | 30.2
CC(=O)O[C@@H]1C[C@@]23C[C@@]24CC[C@H](OC2OCC(O)C(O)C2O)C(C)(C)[C@@H]4CC[C@H]3[C@]2(C)C[C@@H]3O[C@]4(C[C@@H](C)[C@@H]3[C@@]12C)O[C@H](O)[C@@]1(C)O[C@@H]41 (some centres undefined) | 144
CC(=O)O[C@@H]1C[C@@]23C[C@@]24CC[C@H](OC2OCC(O)C(O)C2O)C(C)(C)[C@@H]4CC[C@H]3[C@]2(C)C[C@@H]3O[C@]4(C[C@@H](C)[C@@H]3[C@@]12C)OC[C@]1(C)O[C@H]41 (some centres undefined) | 30.2
